These results are taken from US9890175B2, “Taxane compound, and preparation method and use thereof” (JIANGSU TASLY DIYI PHARMACEUTICAL CO., LTD., priority 2013, dated 2018).

Molecules are shown by their SMILES.

Assay type in all cases: cell-based
The test system of one assay is HT-29 colon cancer. Kind of assay: MTT proliferation inhibition, HT-29. As to conditions: Homo sapiens, HT-29, read-out: Proliferation inhibition rate, HT29 Colon cancer. The text has this:
(§1) 1. Cytotoxicity Assay Using Human Tumor Cell Lines
(§2) Paclitaxel was used as the positive drug.

In another assay the test system is A2780 ovarian cancer. Kind of assay: MTT proliferation inhibition, A2780. As to conditions: Homo sapiens, A2780, read-out: Proliferation inhibition rate, A2780 Ovarian cancer.
Description: as §1, §2

The test system of another assay is Hela cervical cancer. Kind of assay: MTT proliferation inhibition, HeLa. As to conditions: Homo sapiens, read-out: Proliferation inhibition rate, HeLa Uterin cancer.
Description: as §1, §2

In a further assay the test system is BGC-823 gastric cancer. Kind of assay: MTT proliferation inhibition, BGC-823. As to conditions: Homo sapiens, BGC-823, read-out: Proliferation inhibition rate, BGC-823 Gastric cancer.
Description: as §1, §2

The subject of another assay is LN-18. Kind of assay: MTT proliferation inhibition, LN-18. To be noted: Homo sapiens, LN-18, read-out: Proliferation inhibition rate, LN-18 Gastric canser.
Description: as §1, §2

A further assay concerns HCT 116 colon cancer. Kind of assay: MTT proliferation inhibition, HCT 116. To be noted: Homo sapiens, HCT-116, read-out: Proliferation inhibition rate, HCT 116 Colon cancer.
Description: as §1, §2

The next assay deals with K562 leukemia. The assay is described as follows: MTT proliferation inhibition, K562. To be noted: Homo sapiens, K562, read-out: Proliferation inhibition rate, K562 Leukemia.
Description: as §1, §2

As for `CO[C@H]1C[C@H]2OC[C@@]2(OC(C)=O)[C@H]2[C@H](OC(=O)c3ccccc3)[C@]34OC(=O)O[C@H]3[C@H](OC(=O)[C@H](O)[C@@H](NC(=O)OC(C)(C)C)c3ccccc3)C(C)=C([C@@H](OC(=O)N(C)C)C(=O)[C@]12C)C4(C)C` [PCMI-08], the inhibition at 1 µM was 81.7% in the assay on HT-29 colon cancer; 92.5% with A2780 ovarian cancer; 97.3% in the assay on Hela cervical cancer; 80.8% with BGC-823 gastric cancer; 87.7% with LN-18; 58.7% in the assay with HCT 116 colon cancer. Besides, the inhibition at 1 µM in the assay with K562 leukemia is 90.8%.
